Reference: article PMC5856786, “A DHODH inhibitor increases p53 synthesis and enhances tumor cell killing by p53 degradation blockage” (Nature Communications, 2018)
Read-outs that look alike come from different tables or passages of the source.

Columns and labels:
[1] = test system: H1299 p53-null xenograft tumors; assay: H1299 p53-null xenograft; assay type: in vivo, mice
Excerpt: Error bars illustrate ± SEM with significance determined by Multiple Student’s t-tests. […] See supplementary information for detailed description of protocol. d) Pharmacokinetic study examining the effect of co-administration of nutlin-3a and (R)-HZ05 on the plasma concentration of nutlin-3a over time. See supplementary information for detailed description of protocol. e) In vivo activity of (R)- HZ05 alone and in combination with nutlin-3 on H1299 p53-null xenograft tumors (n ≥ 6). […] In the tumor volume graph, (**) on day 4 indicates a statistical difference of Control to HZ05 and to nutlin-3a; (*) on day 7 indicates a difference between Control and nutlin-3a; and (**) on day 12 indicates a statistical difference between Control, […] 19

[2] = In vivo pharmacokinetic parameters of (R)-HZ05; set-up: species or system C57B1/6N mice; conditions: for AUC(0-inf) / Cmax / Tmax / AUC / half-life / BA (%): mice; for AUC: read-out: AUC 0-h; for half-life: read-out: t (h) (half-life) (converted)
Procedure: Waters Acquity UPLC (Waters Corp.) was used for all LC/MS and LC/MS/MS experiments. For chromatographic separation a general gradient was used (5 % mobile phase B to 90 % over 2 min total run) on a C18 BEH 1.7 µm column 2 × 50 mm (Waters Corp.). Mobile phase A consisted of 5 % acetonitrile 0.1 % formic acid and mobile phase B 100 % acetonitrile 0.1 % formic acid. The flow rate was 0.5 mL min-1 and 3 µL of the sample was injected. A standard curve between 3−1000 nM was prepared for each compound. […]
In vivo Pharmacokinetic Parameter Determination
(R)-HZ05 was formulated for subcutaneous and oral administration at 5 mg mL-1 in 20 % hydroxypropyl-β-cyclodextrin in PBS and formulated at 5 mg mL-1 diluted in physiological NaCl. […]
Blood was collected […]
in EDTA tubes from three mice per time point and stored on ice with plasma separated within 30 min by centrifugation at 2000 g and stored at –80 ° C until analysis at 0.08, 0.25, 0.5, 1, 2, 3, 4, 6 and 24 h post administration. […] internal standard (9 nM warfarin) was added to each plasma sample and each sample was shaken at RT for 10 min followed by centrifugation at 2000 g for 30 min at 4 °C. […] of sample was injected into an Acquity UPLC coupled to a triple quadrupole mass spectrometer (Waters) operated in MRM mode with positive electrospray ionization. MRM transition 381.09 > […]
CV and 40 V for CE) as a qualifier ion. Transition for internal standard was 309.16 > 163.005 (22 V for CV and 14 V for CE). Ion source conditions were: capillary voltage, 2000 V; desolvation temperature, 500 °C; desol vation gas flow rate, 1000 L h-1. Separation was conducted using a BEH C18 column (2.1 × 50 mm, 1.7 µm, Waters) using a linear gradient: 0 – 0.5 min, 5 % B; […], 100 % B, 1.61–2.00 min, 5 % B. Mobile phase A was 5 % acetonitrile with 0.1 % formic acid and B […]
All animal experimentation was carried out by Sweden
Contract In vivo Design AB in compliance with 2010/63/EU directive and approved by Stockholms Norra Djurförsöksetiska Nämnd (laboratory animal eth ical committee Stockholm) with the approval number N61/15. Any single plasma concentration value deviated by >10 times from the other two values was excluded from the pharmacokinetic evaluation, but was included in the figure. […]

[3] = target: recombinant human DHODH (Homo sapiens, UniProt Q02127); assay: Kinetic DHODH enzyme assay (3,4-dimethoxy-5-methyl-p-benzoquinone, DCIP); assay type: biochemical; set-up: made in house; conditions: Fig. 5a; average of three independent repeats ± SD
Procedure: In Fig. 5a enzyme assays were optimized and performed with 6 nM recombinant human DHODH prepared as described. The reaction mixture for these kinetic assays consisted of 1 mM DL-dihydroorotic acid, 100 µM 3,4-dimethoxy-5-methyl-p-benzoquinone (#D9150, Sigma-Aldrich), and 100 µM DCIP in enzyme buffer. A stock solution of 20 mM DCIP was prepared in enzyme buffer and filtered through filter paper (20–25 μm pore size) just before use. Loss in absorbance by DCIP was measured at 595 nm at RT in a stepped time course (8 × 2 min, 8 × 3 min, 6 × 5 min). […] Therefore, for each concentration of inhibitor tested, a value for DHODH’s Vmax was estimated by linear regression within this time frame.

[4] = female, C57B1/6N, mouse, plasma, iv, i.v, dose 5 mg kg-1
[5] = female, C57B1/6N, mouse, plasma, po, p.o, dose 50 mg kg-1
[6] = female, C57B1/6N, mouse, plasma, sc, s.c, dose 50 mg kg-1

Sequence of recombinant human DHODH (Q02127 29-395 limits assumed): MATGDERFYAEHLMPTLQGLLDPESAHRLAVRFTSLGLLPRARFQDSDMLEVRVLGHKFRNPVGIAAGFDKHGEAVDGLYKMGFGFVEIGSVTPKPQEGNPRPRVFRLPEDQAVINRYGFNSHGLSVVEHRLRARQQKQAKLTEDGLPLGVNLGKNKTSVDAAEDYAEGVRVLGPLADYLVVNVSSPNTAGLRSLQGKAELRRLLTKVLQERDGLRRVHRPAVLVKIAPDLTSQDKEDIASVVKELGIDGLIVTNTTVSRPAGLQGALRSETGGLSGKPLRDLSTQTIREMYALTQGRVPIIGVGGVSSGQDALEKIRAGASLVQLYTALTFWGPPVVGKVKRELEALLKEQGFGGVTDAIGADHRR

- clearance ([2]; female, C57B1/6N, mouse, plasma, iv, 5 mg kg-1, mice, i.v): 90 mL/min/kg
- Vd ([2]; female, C57B1/6N, mouse, plasma, iv, 5 mg kg-1, mice, i.v, read-out: Vd): 8.3 L/kg
- Vd ([2]; female, C57B1/6N, mouse, plasma, iv, 5 mg kg-1, mice, i.v, read-out: Vss): 3.6 L/kg
- AUC(0-inf) [2, 4]: 2.4 µM·h
- Cmax [2, 4]: 6.1 µM
- Tmax [2, 4]: 4.8 min
- AUC [2, 4]: 2.4 µM·h
- half-life [2, 4]: 1.1 h
- AUC(0-inf) [2, 5]: 9.9 µM·h
- Cmax [2, 5]: 7.5 µM
- Tmax [2, 5]: 15 min
- AUC [2, 5]: 9.9 µM·h
- half-life [2, 5]: 2.9 h
- AUC(0-inf) [2, 6]: 30 µM·h
- Cmax [2, 6]: 14.9 µM
- Tmax [2, 6]: 30 min
- AUC [2, 6]: 30 µM·h
- half-life [2, 6]: 2.5 h
- BA (%) ([2]; p.o, dose 50 mg kg-1): 41%
- BA (%) ([2]; s.c, dose 50 mg kg-1): > 100%
- IC50 [3]: 11 ± 0.94 nM
Compound: O=C(N[C@@H]1CCCc2c1cnn2-c1ccccc1F)c1onc2c1CCCC2 [(R)-HZ05]
- synergy with nutlin-3a in p53-null xenograft [1]: no synergy
